From paper PMC8518382, “Identification of a Bromodomain‐like Region in 15‐Lipoxygenase‐1 Explains Its Nuclear Localization” (Angewandte Chemie (International Ed. in English), 2021) come the findings set out here.

The test system of data set [1] is endogenous LOXs in intact RAW 264.7 macrophage cells. Put plainly: Western blot of Labelox B labeling in intact RAW 264.7 macrophage cells. In kind it is cell-based. The text has this: (§1) described in the IC50 determination assay. Michaelis-Menten plots, Lineweaver-Burk plots, Km, and Vmax, are generated using GraphPad Prism 8.3.0.
1.5. Kits-Wilson kinetic analysis […]
enzyme to get a reversible complex, E*I. The dissociation constant of inhibitor (Ki) is from the formation […]
E-I. The inactivation rate constant (ki) is to describe the rate of E-I generation. To determine these inactivation parameters, Kitz-Wilson analysis was employed. The procedure has been detailed previously […]
1.6. Immunoblotting Analysis
Raw 264.7 cells were seeded in a 6-well plate at a density of 5x10^5 cells per well in high glucose DMEM media supplemented with 1% penicillin/streptomycin, 10% fetal bovine serum (FBS) (Costar Europe, Badhoevedrop, The Netherlands) at 37°C and cultured overnight. Afterward, cells were treated with the desired concentration of Labelox B at the expected time. Then, the cells were harvested and lysed with RIPA buffer containing 1X PIC. […]
Later, 30 μl of each sample was used for immunoblotting analysis. […] After washing, the blotting bands were detected with enhanced chemiluminescence (ECL) solution (GE Healthcare, Amersham, UK). […]
A549 cells were lysed by RIPA buffer supplemented with 1x PIC. After sonication and centrifugation, the supernatant was collected, and the protein concentration was determined by a Pierce BCA Protein Assay Kit (Thermo Fisher Scientific, USA). […]
For orientation: Immunoblotting shows a protein as a band on a membrane.

In data set [2] the target is T1, 15-LOX-1 (Homo sapiens, UniProt P16050).
T1 sequence (P16050 1-662): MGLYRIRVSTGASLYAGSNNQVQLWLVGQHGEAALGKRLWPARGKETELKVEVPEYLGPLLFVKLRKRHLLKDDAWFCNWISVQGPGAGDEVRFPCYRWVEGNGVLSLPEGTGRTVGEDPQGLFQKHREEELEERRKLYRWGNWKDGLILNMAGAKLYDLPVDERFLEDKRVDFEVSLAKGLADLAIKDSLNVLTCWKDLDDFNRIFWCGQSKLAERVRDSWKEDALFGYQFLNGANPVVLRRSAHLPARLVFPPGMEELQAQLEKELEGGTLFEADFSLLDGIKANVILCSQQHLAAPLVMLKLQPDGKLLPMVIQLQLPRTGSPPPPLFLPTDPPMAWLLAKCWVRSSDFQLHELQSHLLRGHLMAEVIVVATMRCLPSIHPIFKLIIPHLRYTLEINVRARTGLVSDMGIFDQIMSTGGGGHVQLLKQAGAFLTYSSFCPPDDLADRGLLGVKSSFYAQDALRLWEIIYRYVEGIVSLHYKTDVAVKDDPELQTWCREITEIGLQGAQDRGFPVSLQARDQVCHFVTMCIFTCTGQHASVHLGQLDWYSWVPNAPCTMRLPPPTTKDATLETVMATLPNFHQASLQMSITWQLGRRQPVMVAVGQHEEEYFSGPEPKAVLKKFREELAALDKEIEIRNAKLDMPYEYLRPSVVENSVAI
The data set is described as follows: Kitz-Wilson kinetic analysis of 15-LOX-1 inactivation. In kind it is biochemical. More on the design: His-tag (N); made in house; host or cells: E. coli BL21(DE3). As to the method:
Subsequently, Kitz‐Wilson analysis was performed to distinguish the equilibrium binding constant (K i) from the rate of covalent inactivation (k i). The different bis‐alkynes provided remarkably constant k i’s that varied by a factor 3 or less, whereas the K i’s varied by a factor 200 (Table 1). […] Improved non‐covalent binding is an important characteristic for activity‐based labeling because it implies improved specific recognition properties to the target of interest. Therefore, inhibitor 3 has been used for further development of a probe for activity‐based labeling of lipoxygenase activity with 15‐LOX‐1 as a reference enzyme. For convenient discussion, we named inhibitor 3, “Labelox B”. […]
as §1
1.5. Kits-Wilson kinetic analysis
The probes inhibit the 15-LOX-1 enzyme with a two-step reaction. First, a probe binds to an enzyme to get a reversible complex, E*I. The dissociation constant of inhibitor (Ki) is from the formation of E*I. Then, the probe forms a covalent bond with the enzyme, which generates an irreversible complex, E-I. The inactivation rate constant (ki) is to describe the rate of E-I generation. To determine these inactivation parameters, Kitz-Wilson analysis was employed. The procedure has been detailed previously

In data set [3] the target is T1, 15-LOX-1. Put plainly: Jump dilution assay on recombinant 15-LOX-1. In kind it is biochemical. More on the design: His-tag (N); made in house; host or cells: E. coli BL21(DE3). As to conditions: 10 µM for 20 min at room temperature, then 100-fold dilution. As to the method:
Figure S3. Labelox B labeled endogenous LOXs are immunoprecipitated by streptavidin beads. (A) A549 cell lysates were treated with. Labelox B. After labeling, free Labelox B was removed by Vivaspin
2. Labelox B labeled proteins were precipitated by Dynabeads and analyzed by Western blotting. (B) Uncropped Western blots for (A)
LOX-1 was incubated with Labelox B at 10 µM for 20min at room temperature to ensure 100% inhibition. Then, the enzyme/probe mixture was dilution 100-fold and employed for linoleic acid conversion. The group incubated with vehicle was condisered as positive control, while the group in […] of 15-LOX-1 was negative control. […]

For the compound `CCCCCC#CCC#CCOC(=O)CCCC[C@@H]1SC[C@@H]2NC(=O)N[C@@H]21` [Labelox B (3)], the “Labeling of proteins with the size of endogenous LOXs” value in data set [1] (1 μM to 100 μM, 0.5 h to 6 h) is “dose and time‐dependent manner”. The “Cell permeability” value in data set [1] (labels effectively in half an hour at 25 μM) is on record as “sufficiently cell‐permeable”. Besides, the “k i (rate of covalent inactivation)” value at 15-LOX-1 [2] was determined as 0.0191 ± 0.0038 min⁻¹. Besides, on 15-LOX-1 [2] (read-out: K i (equilibrium binding constant)), the Ki is 500 ± 140 nM. Moreover, the “Reversibility of inhibition” value at 15-LOX-1 [3] is given as “irreversibly inhibits”.
